Reference: US8759331B2, “X-ray and gamma-photon activable organic compounds, their preparation and their uses” (Centre National de la Recherche Scientifique, priority 2010, dated 2014)
“Also recorded” adds a separate entry of the source.

Columns and labels:
[1] = radiolysis under X-ray irradiation (17.5 keV), followed by HPLC; type: physicochemical; settings: soft X-ray irradiation 17.5 keV
Method: The radiolysis was followed either by the diminution of the caged compound 5, or by the increasing of the photo-products 6 and 7. […] The photo-fragmentation follows a first order kinetic with a time constant of 4.7×10^−3 min^−1.
The evolution of the radiolysis was followed by HPLC using C-18 reverse phase chromatography (XTerra, eluents: methanol/HCO2H (0.1% aq), H2O/HCO2H (0.1% aq) detection at 260 and 320 nm).

[2] = photolysis under one-photon (UV) irradiation at 366 nm, followed by HPLC/LC-MS; type: physicochemical; settings: 366 nm UV irradiation, physiological conditions / aqueous buffer pH 7
Method: The photochemical efficiency of any chromophores is determined by the extinction coefficient (ε) and the quantum yield (Qu) that is characteristic of the observed photochemical event of the chromophore. The product of these quantities (εQu) characterizes the efficiency of the event such as fluorescence or chemical transformation, for example by the incident light.
The photolysis at 366 nm of compound 5 was monitored by the disappearance of the caged hydrocinnamate 5 and by the appearance of the compounds 6 and 7, by using liquid chromatography (LC) or liquid-chromatography-mass spectrometry (LC-MS) techniques. […] In contrast, compound 4 was inert under UV irradiation at 366 nm.
Samples were prepared in c=0.1 mM concentration in aqueous TRIS buffer (pH=7). An aliquot (1 mL) of this solution was irradiated at 366 nm (ε366=3000 M^−1·cm^−1) in a 1 mL quartz cuvette. The evolution of the photolysis was followed by HPLC using C-18 reverse phase chromatography (XTerra, eluents: methanol/HCO2H (0.1% aq), H2O/HCO2H (0.1% aq) detection at 260 and 320 nm).

photolysis under near UV irradiation (366 nm) [2] | Compound | photo-fragmentation under X-ray irradiation [1]
prone to photolysis | CC(C)(C)OC(=O)N1CCN(c2ccc3ccc(COC(=O)CCc4ccccc4)nc3c2)CC1 [compound 3] | no detectable photo-fragmentation; also recorded: no traces of photo-fragmentation
inert | O=C(CCc1ccccc1)OCc1ccc2ccc(N3CCNCC3)cc2n1 [compound 4] | no detectable photo-fragmentation; also recorded: no traces of photo-fragmentation
